Source: patent publication US6673902B2, “Cyclin D binding factor, and uses thereof” (St. Jude Children's Research Hospital, priority 1996, dated 2004)

Assays:
wild-type MEFs [1] = test: BrdU incorporation / cell cycle arrest in wild-type MEFs; type: cell-based, mouse; conditions: retroviral infection
Description: BrdU incorporation and immunofluorescence. Wild-type or ARF-null MEFs (4×10^4 cells) were seeded on gelatin-coated coverslips 16 hours before virus infection. Cells were infected three times with empty vector, or vectors expressing murine DMP1, human c-Myc, human E2F-1, or human Ets1. Cells were labeled 36 hours after virus infection with bromodeoxyuridine (BrdU, Sigma) for 14 hours in complete medium. For pulse labeling, MEFs were treated with 2 μM4-HT for 36 hours and labeled with BrdU for three hours at different intervals throughout the inductive phase. Cells were fixed in ice-cold methanol-acetone (1:1) for 10 min at −20° C. and then were stained with affinity-purified antibodies to DMP1 (AF) [Hirai and Sherr, Mol. Cell. […]
Based on the above observations, it was determined as to whether introduction of DMP1 would induce synthesis of the endogenous ARF protein in normal diploid fibroblast strains. […] Although the blot was normalized for protein input, the levels of p19^ARF induced by DMP1 were calculated to be 2-fold higher than those induced by Myc, because fewer cells were productively infected with the DMP1 virus in this experiment (see FIG. 15A).

D-type cyclins = test: Co-expression with D-type cyclins in Sf9 cells and co-precipitation; type: binding, mouse
Description: BamHI linkers are added to an XbaI-EcoRV cDNA fragment containing the entire DMP1 coding sequence, and the fragment is inserted into the BamHI site of the pAcYM1 baculovirus vector (37). Production of virus and infection of Spodoptera frugiperda (Sf9) cells are performed as previously described (23). For preparation of radiolabeled cell lysates, cells infected with the indicated recombinant viruses encoding DMP1, CDKs, and/or cyclins are metabolically labeled 40 hours post-infection for 8 additional hours with 50 uCi/ml of [^35S]methionine (1000 Ci/mmol; ICN, Irvine Calif.) in methionine-free medium or for 4 additional hours with 250 uCi/ml of carrier-free ^32P-orthophosphate (9000 Ci/mmol, Amersham) in phosphate-free medium. Cells suspended in 0.25 ml Kinase buffer containing protease and phosphatase inhibitors [2.5 mM EGTA, 0.1 mM phenylmethyl sulfonylfluoride (PMSF), 2% aprotinin, 1 mM β-glycerophosphate, 0.1 mM Na3VO4, and 0.1 mM NaF] are lysed by repeated freezing and thawing and clarified by centrifuigation. […]
We next co-expressed full length DMP1 together with D-type cyclins under baculovirus vector control in insect Sf9 cells. […] Electrophoretic separation of unfractionated metabolically labeled lysates from infected cells enabled direct autoradiographic visualization and relative quantitation of the recombinant mouse proteins (FIG. 3A). […]

wild-type MEFs [2] = test: Apoptosis assay in wild-type MEFs deprived of serum; type: cell-based, mouse
Description: Apoptosis assays. Wild-type MEFs infected with the indicated retroviruses for 36 hours were starved for serum for 24 hours. Viability was determined by trypan blue dye exclusion, and DNA fragmentation was monitored by a terminal deoxynuclectidyl transferase (FACS-TUNEL) assay and by measurement of subdiploid DNA content of propidium iodide-stained nuclei [Zindy et al., Genes Dev. 12:2424-2433 (1998)].
On the other hand, MEFs overexpressing c-Myc, E2F-1, or E1A are exquisitely sensitive to apoptosis. […] 12:2424-2433 (1998); De Stanchina et al., Genes Dev. 12:2434-2442 (1998)].

With “DMP1: murine cyclin D-associated myb-like transcription factor, 761 amino acids, SEQ ID NO:1” the cell cycle arrest (wild-type MEFs [1]) was “underwent cell cycle arrest”, the “DMP1 molecules forming stable complexes with D-type cyclins” value (D-type cyclins; coexpressed in Sf9 cells) was ≤ 15% and the cyclin stably bound (D-type cyclins; coinfected Sf9 cells, approximately equivalent levels of protein and cyclin D2 or cyclin D3) was 5-15%. For the same substance, the “apoptosis / cell death” value (wild-type MEFs [2]) was “did not trigger apoptosis”.
